The values below come from patent US7560458B2, “Triazolopyrimidine derivatives as glycogen synthase kinase 3 inhibitors” (Janssen Pharmaceutica, N.V., priority 2003, dated 2009).

A value given as a limit tells only on which side of the number the result lay.

One experiment has as its target GSK3alpha (Homo sapiens, UniProt P49840). Nature of the experiment: GSK3alpha assay (same as the GSK3beta assay, GSK3alpha 0.25 ng/μl). It is filed as biochemical. Particulars: −log IC50 (M); given as ranges (>8; 7-8; <7); read-out: pIC50 (GSK3alpha) (converted). The procedure: (§1) GSK3beta assays were performed at room temperature in a 100 μl reaction volume of 25 mM Tris (ph 7.4) containing 10 mM MgCl2.6H2O 1 mM DTT, 0.1 mg/ml BSA, 5% glyceol and containing 5.7 ng/μl GSK3β, 5 μM biotinylated phosphorylated CREB peptide, 1 μM APT, 0.85 μCi/ml ATP-P^33 and a suitable amount of a test compound of formula (I). After one hour, the reaction was terminated by adding 70 μl of Stop mix (0.1 mM APT, 5 mg/ml streptavidin coated PVT SPA bead pH 11.0). The beads to which the phosphorylated CREB peptide is attached were allowed to settle overnight and the radioactivity of the beads was counted in a microtiterplate scintillation counter and compared with the results obtained in a control experiment (without the presence of a test compound) in order to determine the percentage of GSK3β inhibition. The IC50 value, i.e. the concentration (M) of the test compound at which 50% of GSK3β is inhibited, was calculated from the dose response curve obtained by performing the above-described GSKK3β assay in the presence of different amounts of the test compound.
The GSK3alpha assay was performed in the same way as described above for the GSK3beta assay except for the concentration of GSK3alpha which is 0.25 ng/μl.

The target of another experiment is GSK3β (Homo sapiens, UniProt P49841). Nature of the experiment: GSK3beta assay (SPA, biotinylated phosphorylated CREB peptide, ATP-P33). Type of experiment: biochemical. Particulars: −log IC50 (M); given as ranges (>8; 7-8; <7); read-out: pIC50 (GSK3beta) (converted). The procedure:
as §1

GSK3β, sequence (P49841 whole entry, species assumed): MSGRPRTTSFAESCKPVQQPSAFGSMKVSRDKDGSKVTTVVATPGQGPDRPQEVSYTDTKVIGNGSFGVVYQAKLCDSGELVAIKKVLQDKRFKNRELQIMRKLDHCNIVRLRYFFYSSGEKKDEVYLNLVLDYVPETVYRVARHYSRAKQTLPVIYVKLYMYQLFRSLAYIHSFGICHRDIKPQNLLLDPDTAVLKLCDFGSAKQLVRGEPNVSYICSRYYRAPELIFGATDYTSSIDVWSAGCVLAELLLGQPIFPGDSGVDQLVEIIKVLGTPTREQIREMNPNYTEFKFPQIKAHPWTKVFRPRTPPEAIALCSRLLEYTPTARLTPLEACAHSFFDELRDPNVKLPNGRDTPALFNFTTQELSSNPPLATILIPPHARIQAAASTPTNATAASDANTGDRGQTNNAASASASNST
GSK3alpha, sequence (P49840 whole entry, species assumed): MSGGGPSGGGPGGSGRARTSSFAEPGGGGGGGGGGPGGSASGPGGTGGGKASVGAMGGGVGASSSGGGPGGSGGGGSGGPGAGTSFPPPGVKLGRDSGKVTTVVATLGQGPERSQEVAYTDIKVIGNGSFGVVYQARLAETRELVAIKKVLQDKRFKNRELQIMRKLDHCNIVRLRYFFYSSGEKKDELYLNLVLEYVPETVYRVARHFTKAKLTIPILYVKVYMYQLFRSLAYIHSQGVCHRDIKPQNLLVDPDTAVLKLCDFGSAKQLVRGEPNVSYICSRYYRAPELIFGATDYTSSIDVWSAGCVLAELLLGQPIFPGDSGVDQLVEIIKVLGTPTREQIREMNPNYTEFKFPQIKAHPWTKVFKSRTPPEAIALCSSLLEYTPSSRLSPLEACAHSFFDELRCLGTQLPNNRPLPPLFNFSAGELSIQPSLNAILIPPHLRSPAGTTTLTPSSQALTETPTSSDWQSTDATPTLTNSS

As for `COCc1cccc(-n2nnc3cnc(Nc4cccc(NC(C)=O)c4)nc32)c1` [Compound 81], the IC50 at GSK3alpha and on GSK3β was less than 1e-08 M throughout.
On to `CCOc1ccc(Nc2ncc3nnn(-c4ccccc4)c3n2)cn1` [Compound 82], for which the values for the IC50 at GSK3alpha and on GSK3β were less than 1e-08 M and 1e-08 to 1e-07 M, respectively.
With `CC(=O)Nc1ccc(Nc2ncc3nnn(-c4ccccc4)c3n2)cn1` [Compound 83], the IC50 on GSK3alpha and on GSK3β was 1e-08 to 1e-07 M each time.
Regarding `COCc1cccc(-n2nnc3cnc(Nc4cccc(NS(C)(=O)=O)c4)nc32)c1` [Compound 84], the IC50 at GSK3alpha and at GSK3β was less than 1e-08 M each time.
Take `COCc1cccc(-n2nnc3cnc(Nc4cccc(S(N)(=O)=O)c4)nc32)c1` [Compound 85]: the IC50 is less than 1e-08 M at GSK3alpha and 1e-08 to 1e-07 M on GSK3β.
Take `COCc1cccc(-n2nnc3cnc(Nc4cccc(C(C)=O)c4)nc32)c1` [Compound 86]: the IC50 at GSK3alpha and on GSK3β was less than 1e-08 M each time.
Turning to `CC(=O)Nc1ccc(Nc2ncc3nnn(-c4cccc(F)c4)c3n2)cn1` [Compound 87], the IC50 is less than 1e-08 M on GSK3alpha and 1e-08 to 1e-07 M at GSK3β.
For `O=S(=O)(NCCO)c1cccc(Nc2ncc3nnn(-c4cccc(F)c4)c3n2)c1` [Compound 88], in that order: less than 1e-08 M and less than 1e-08 M.
For `NC(=O)CNC(=O)c1cccc(Nc2ncc3nnn(-c4cccc(F)c4)c3n2)c1` [Compound 89], in that order: less than 1e-08 M and less than 1e-08 M.
For `COCCNC(=O)c1cccc(Nc2ncc3nnn(-c4cccc(F)c4)c3n2)c1` [Compound 90], in that order: less than 1e-08 M and less than 1e-08 M.
With `COc1ccc(Nc2ncc3nnn(-c4cccc(F)c4)c3n2)cn1` [Compound 91], the IC50 at GSK3alpha and on GSK3β was less than 1e-08 M throughout.
As to `CN(C)S(=O)(=O)c1cccc(Nc2ncc3nnn(-c4cccc(F)c4)c3n2)c1` [Compound 94], the IC50 on GSK3alpha and at GSK3β was less than 1e-08 M each time.
For `CNS(=O)(=O)c1cccc(Nc2ncc3nnn(-c4cccc(F)c4)c3n2)c1` [Compound 95], the IC50 on GSK3alpha and at GSK3β was less than 1e-08 M each time.
Take `COCc1cccc(-n2nnc3cnc(Nc4cccc(S(C)(=O)=O)c4)nc32)c1` [Compound 96]: the IC50 at GSK3alpha and on GSK3β was 1e-08 to 1e-07 M in each case.
With `COCc1cccc(-n2nnc3cnc(Nc4cccc(C#N)c4)nc32)c1` [Compound 97], the IC50 at GSK3alpha and at GSK3β was less than 1e-08 M each time.
As to `NC(=O)CNS(=O)(=O)c1cccc(Nc2ncc3nnn(-c4cccc(F)c4)c3n2)c1` [Compound 98], the IC50 on GSK3alpha and at GSK3β was less than 1e-08 M throughout.
In the case of `CC(=O)NCc1cccc(-n2nnc3cnc(Nc4cccc(NS(C)(=O)=O)c4)nc32)c1` [Compound 99], the IC50 on GSK3alpha and on GSK3β was less than 1e-08 M in each case.
In the case of `CN(C)C(=O)c1cccc(Nc2ncc3nnn(-c4cccc(F)c4)c3n2)c1` [Compound 100], the IC50 at GSK3alpha and on GSK3β was less than 1e-08 M throughout.
For `O=C(NCCO)c1cccc(Nc2ncc3nnn(-c4cccc(F)c4)c3n2)c1` [Compound 101], the IC50 on GSK3alpha and at GSK3β was less than 1e-08 M throughout.
For `CC(=O)NCCNS(=O)(=O)c1cccc(Nc2ncc3nnn(-c4cccc(F)c4)c3n2)c1` [Compound 102], the IC50 at GSK3alpha and at GSK3β was less than 1e-08 M each time.
Consider `COCCNS(=O)(=O)c1cccc(Nc2ncc3nnn(-c4cccc(F)c4)c3n2)c1` [Compound 103], for which the IC50 is less than 1e-08 M on GSK3alpha and greater than 1e-09 M at GSK3β.
For `COC(=O)c1cc(Nc2ncc3nnn(-c4cccc(F)c4)c3n2)ccc1NC(C)=O` [Compound 104], in that order: less than 1e-08 M and less than 1e-08 M.
For `CC(=O)NCc1cccc(-n2nnc3cnc(Nc4cccc(C#N)c4)nc32)c1` [Compound 107], in that order: less than 1e-08 M and less than 1e-08 M.
For `CC(=O)NCc1cccc(Nc2ncc3nnn(-c4cccc(CNC(C)=O)c4)c3n2)c1` [Compound 108], in that order: less than 1e-08 M and less than 1e-08 M.
`CC(=O)NCc1cccc(-n2nnc3cnc(Nc4cccc(NC(C)=O)c4)nc32)c1` [Compound 109]: the IC50 on GSK3alpha and on GSK3β was less than 1e-08 M in each case.
Consider `CC(=O)NCc1cccc(-n2nnc3cnc(Nc4cccc(CO)c4)nc32)c1` [Compound 110], for which the IC50 on GSK3alpha and on GSK3β was less than 1e-08 M each time.
In the case of `CC(=O)NCc1cccc(-n2nnc3cnc(Nc4cccc(C(C)=O)c4)nc32)c1` [Compound 111], the IC50 on GSK3alpha and at GSK3β was less than 1e-08 M each time.
On to `CC(=O)NCc1cccc(-n2nnc3cnc(Nc4cccc(S(N)(=O)=O)c4)nc32)c1` [Compound 112], for which the IC50 at GSK3alpha and at GSK3β was less than 1e-08 M throughout.
With `CC(=O)NCc1cccc(-n2nnc3cnc(Nc4cccc(S(C)(=O)=O)c4)nc32)c1` [Compound 113], the IC50 on GSK3alpha and on GSK3β was less than 1e-08 M in each case.
Turning to `COCc1cccc(-n2nnc3cnc(Nc4cccc(C(=O)O)c4)nc32)c1` [Compound 121], the IC50 at GSK3alpha and on GSK3β was 1e-08 to 1e-07 M throughout.
Regarding `CSc1cccc(Nc2ncc3nnn(-c4cccc(F)c4)c3n2)c1` [Compound 122], the IC50 on GSK3alpha and on GSK3β was less than 1e-08 M each time.
On to `O=C(O)c1ccc(Nc2ncc3nnn(-c4ccccc4)c3n2)cc1` [Compound 123], for which the IC50 at GSK3alpha and on GSK3β was less than 1e-08 M each time.
Turning to `O=C(O)c1ccc(Nc2ncc3nnn(-c4cccc(Br)c4)c3n2)cc1` [Compound 124], the IC50 at GSK3alpha and on GSK3β was less than 1e-08 M throughout.
For `COCc1cccc(-n2nnc3cnc(Nc4ccc(C(=O)O)cc4)nc32)c1` [Compound 125], the IC50 on GSK3alpha and at GSK3β was less than 1e-08 M each time.
`CC(=O)NCc1cccc(-n2nnc3cnc(Nc4ccc(C(=O)O)cc4)nc32)c1` [Compound 126]: the IC50 at GSK3alpha and on GSK3β was less than 1e-08 M throughout.
For the molecule `COc1ccc(Nc2ncc3nnn(-c4cccc(CNC(C)=O)c4)c3n2)cn1` [Compound 127], the IC50 at GSK3alpha and at GSK3β was less than 1e-08 M throughout.
As for `CC(=O)NCc1cccc(-n2nnc3cnc(Nc4cccc(S(=O)(=O)NCCO)c4)nc32)c1` [Compound 131], the IC50 at GSK3alpha and on GSK3β was 1e-08 to 1e-07 M each time.
Take `COCc1cccc(Nc2ncc3nnn(-c4cccc(COC)c4)c3n2)c1` [Compound 132]: the IC50 on GSK3alpha and on GSK3β was less than 1e-08 M throughout.
As for `COCc1cccc(-n2nnc3cnc(Nc4ccc(OC)nc4)nc32)c1` [Compound 133], the IC50 at GSK3alpha and at GSK3β was less than 1e-08 M throughout.
Regarding `COC(=O)c1cc(Nc2ncc3nnn(-c4cccc(F)c4)c3n2)ccc1N` [Compound 134], the IC50 on GSK3alpha and on GSK3β was less than 1e-08 M each time.
With `CC(=O)N(C)c1ccc(Nc2ncc3nnn(-c4cccc(F)c4)c3n2)cc1` [Compound 135], the IC50 at GSK3alpha and at GSK3β was less than 1e-08 M in each case.
In the case of `O=C(O)c1ccc(Nc2ncc3nnn(-c4cccc(F)c4)c3n2)cc1O` [Compound 136], the IC50 at GSK3alpha and on GSK3β was less than 1e-08 M each time.
Regarding `O=C(O)c1ccc(Nc2ncc3nnn(-c4cccc(F)c4)c3n2)cc1Cl` [Compound 137], the IC50 on GSK3alpha and at GSK3β was less than 1e-08 M throughout.
Consider `COCc1cccc(-n2nnc3cnc(Nc4ccc(C(=O)O)c(Cl)c4)nc32)c1` [Compound 138], for which the IC50 at GSK3alpha and at GSK3β was less than 1e-08 M in each case.
`COCc1cccc(-n2nnc3cnc(Nc4ccc(CCO)cc4)nc32)c1` [Compound 139]: the IC50 at GSK3alpha and at GSK3β was less than 1e-08 M throughout.
With `CNS(=O)(=O)c1cccc(Nc2ncc3nnn(-c4cccc(CNC(C)=O)c4)c3n2)c1` [Compound 140], the IC50 at GSK3alpha and on GSK3β was less than 1e-08 M throughout.
Consider `COCc1cccc(-n2nnc3cnc(Nc4cccc(S(=O)(=O)NCC(N)=O)c4)nc32)c1` [Compound 141], for which the IC50 on GSK3alpha and on GSK3β was 1e-08 to 1e-07 M throughout.
Consider `COCc1cccc(-n2nnc3cnc(Nc4cccc(S(=O)(=O)NCCO)c4)nc32)c1` [Compound 142], for which the IC50 at GSK3alpha and on GSK3β was less than 1e-08 M each time.
`COCc1cccc(-n2nnc3cnc(Nc4cccc(C(C)O)c4)nc32)c1` (stereo not shown) [Compound 143]: the IC50 on GSK3alpha and at GSK3β was less than 1e-08 M each time.
Consider `COCc1cccc(-n2nnc3cnc(Nc4cccc(CO)c4)nc32)c1` [Compound 144], for which the IC50 at GSK3alpha and on GSK3β was less than 1e-08 M throughout.
For `NS(=O)(=O)c1ccc(Nc2ncc3nnn(-c4cccc(F)c4)c3n2)cc1` [Compound 145], the IC50 on GSK3alpha and at GSK3β was less than 1e-08 M throughout.
For `COCc1cccc(-n2nnc3cnc(Nc4ccc(S(N)(=O)=O)cc4)nc32)c1` [Compound 146], the IC50 on GSK3alpha and at GSK3β was less than 1e-08 M in each case.
As for `OCCc1ccc(Nc2ncc3nnn(-c4cccc(F)c4)c3n2)cc1` [Compound 147], the IC50 on GSK3alpha and at GSK3β was less than 1e-08 M throughout.
